What was measured:
[1] = ACE complex stability, SBE-β-CD DS~10.4; type: physicochemical; conditions: sulfobutyl-ether-β-CD DS~10.4, 30 mM phosphate buffer pH 7.4, 25 °C
Protocol: (§1) To investigate the CD complexation behavior of the four kratom alkaloids, we aimed to develop an ACE method for a systematic comparative study. […] To ensure sufficient buffer capacity and to avoid excessive current and Joule heat generation, the buffer concentration was set to 30 mM, and the applied voltage was 15 kV.
(§2) The ACE experiments were performed by using Agilent 7100 and HP^3DCE instruments (Agilent Technologies, Waldbronn, Germany). Untreated fused silica capillaries (total length of 48.5 cm, effective length of 40 cm, inner diameter of 50 μm) were purchased from Agilent Technologies. The new capillaries were conditioned with a 1 M NaOH wash for 1 h, followed by a 30 min wash each with 0.1 M NaOH and purified water. Prior to all runs, the capillary was preconditioned by rinsing with background electrolyte for 3 min. During the measurements, 30 mM phosphate buffer at pH 7.4 (30 mM Na2HPO4-NaOH) was used. The background electrolyte contained CDs at various concentrations. […] The electropherograms were recorded at four wavelengths (200 nm, 210 nm, 215 nm, and 220 nm), and the data were evaluated at 215 nm. […] The measurements were evaluated using Origin and CEval software (v. 0.6i3). […]

[2] = ACE complex stability, S-β-CD; type: physicochemical; conditions: sulfated-β-CD DS~13, 30 mM phosphate buffer pH 7.4, 25 °C
Protocol: as §1, §2

[3] = ACE complex stability, S-γ-CD; type: physicochemical; conditions: sulfated-γ-CD DS~14, 30 mM phosphate buffer pH 7.4, 25 °C
Protocol: as §1, §2

[4] = phase-solubility study, β-CD; type: physicochemical; conditions: 30 mM phosphate buffer pH 7.4, room temperature
Protocol: (§3) Based on our ACE measurements, the promising CDs were selected for phase-solubility studies, along with the most widely used CD excipients, to investigate the effect of CD type and its concentration on mitragynine solubility. The experiments were conducted under conditions similar to those in the ACE measurements, applying 30 mM phosphate buffer (pH 7.4) and room temperature.
(§4) UV spectra and chromatograms were recorded at 200–400 nm, and the chromatogram obtained at 226 nm was used for quantitative analyses.
(§5) Solubility measurements were performed according to Higuchi and Connors. To each 1 mg mitragynine sample, the selected cyclodextrins were added. The final concentration of the CDs was in the range of 0–1 (m/v) %. Suspensions were shaken at room temperature for 24 h and filtered using 0.22 μm filters. The mitragynine concentration in the samples was determined by the above-described UHPLC-UV method. The solubility diagrams were constructed, and the stability constant (Kstab) and complexation efficacy (CE) were calculated using the following formulas:(5) Kstab=slope/S0(1−slope) (6) CE=slope/1−slope where S0 is the intrinsic solubility of a poorly soluble drug. The experiments were performed in a 30 mM phosphate buffer (pH 7.4).

[5] = phase-solubility study, RAME-β-CD; type: physicochemical; conditions: 30 mM phosphate buffer pH 7.4, room temperature
Protocol: as §3, §4, §5

[6] = phase-solubility study, HP-β-CD; type: physicochemical; conditions: 30 mM phosphate buffer pH 7.4, room temperature
Protocol: as §3, §4, §5

[7] = phase-solubility study, CM-β-CD; type: physicochemical; conditions: 30 mM phosphate buffer pH 7.4, room temperature
Protocol: as §3, §4, §5

[8] = phase-solubility study, Subetadex; type: physicochemical; conditions: 30 mM phosphate buffer pH 7.4, room temperature; for complexation efficacy (CE) with Subetadex: phase solubility, calculated from the linear part of the isotherm
Protocol: as §3
In the case of Subetadex, which had the highest solubility enhancement, an AN-type isotherm could be observed with a negative deviation from linearity, indicating a complex process: either the host ratio inside the complex increased, the solvent–solute interactions altered, or both contributed simultaneously.
as §4, §5

[9] = phase-solubility study, Sugammadex; type: physicochemical; conditions: 30 mM phosphate buffer pH 7.4, room temperature
Protocol: as §3, §4, §5

[10] = phase-solubility study, SBE-β-CD DS~6.5; type: physicochemical; conditions: 30 mM phosphate buffer pH 7.4, room temperature
Protocol: as §3, §4, §5

[11] = phase-solubility study, SBE-β-CD DS~10.4; type: physicochemical; conditions: 30 mM phosphate buffer pH 7.4, room temperature
Protocol: as §3, §4, §5

[12] = phase-solubility study, S-β-CD; type: physicochemical; conditions: 30 mM phosphate buffer pH 7.4, room temperature
Protocol: as §3, §4, §5

[13] = design: method as in PMID 25793541; conditions: at pH 7; cited from earlier work
[14] = design: method as in PMID 25793541; conditions: at neutral pH; cited from earlier work
[15] = design: method as in PMID 24841968; conditions: after 2 h; cited from earlier work
[16] = design: method as in PMID 20454783; conditions: rats, in words; cited from earlier work
[17] = design: method as in PMID 28551311; conditions: in vivo microdialysis technique, in words; cited from earlier work

Compound: CC[C@H]1CN2CCc3c([nH]c4cccc(OC)c34)[C@@H]2C[C@@H]1/C(=C\OC)C(=O)OC [Speciogynine, speciogynine]
- complex stability constant (Kstab) with SBE-β-CD DS~10.4 [1]: ~10,000 M^−1
- complex stability constant (Kstab) with S-β-CD [2]: 970 ± 80 M⁻¹

Compound: mitragynine
- complex stability constant (Kstab) with S-γ-CD [3]: 810 ± 75 M⁻¹
- Kstab with β-CD (phase solubility) ([4]; 24 h, CD 0–1 (m/v) %): 55 M⁻¹
- complexation efficacy (CE) with β-CD ([4]; phase solubility): 0.0021
- Kstab with RAME-β-CD (phase solubility) ([5]; 24 h, CD 0–1 (m/v) %): 60 M⁻¹
- complexation efficacy (CE) with RAME-β-CD ([5]; phase solubility): 0.0023
- Kstab with HP-β-CD (phase solubility) ([6]; 24 h, CD 0–1 (m/v) %): 30 M⁻¹
- complexation efficacy (CE) with HP-β-CD ([6]; phase solubility): 0.0011
- Kstab with CM-β-CD (phase solubility) ([7]; 24 h, CD 0–1 (m/v) %): 300 M⁻¹
- complexation efficacy (CE) with CM-β-CD ([7]; phase solubility): 0.0113
- phase-solubility isotherm type with Subetadex [8]: AN-type
- Kstab with Subetadex (phase solubility) ([8]; 24 h, CD 0–1 (m/v) %): 1730 M⁻¹
- complexation efficacy (CE) with Subetadex [8]: 0.0650
- complexation efficacy (CE) with Subetadex ([8]; listed as mitragynine): 0.065
- Kstab with Sugammadex (phase solubility) ([9]; 24 h, CD 0–1 (m/v) %): 1150 M⁻¹
- complexation efficacy (CE) with Sugammadex ([9]; phase solubility): 0.0431
- Kstab with SBE-β-CD DS~6.5 (phase solubility) ([10]; 24 h, CD 0–1 (m/v) %): 480 M⁻¹
- complexation efficacy (CE) with SBE-β-CD DS~6.5 ([10]; phase solubility): 0.0181
- Kstab with SBE-β-CD DS~10.4 (phase solubility) ([11]; 24 h, CD 0–1 (m/v) %): 1020 M⁻¹
- complexation efficacy (CE) with SBE-β-CD DS~10.4 ([11]; phase solubility): 0.0382
- Kstab with S-β-CD (phase solubility) ([12]; 24 h, CD 0–1 (m/v) %): 340 M⁻¹
- complexation efficacy (CE) with S-β-CD ([12]; phase solubility): 0.0127
- logD [13]: 1.73
- aqueous solubility [14]: 88 µg/mL
- degraded under acidic conditions [15]: more than 26%
- oral bioavailability [16]: limited
- blood–brain barrier permeability [17]: excellent

From article PMC11597089, “Kratom Alkaloids: A Blood–Brain Barrier Specific Membrane Permeability Assay-Guided Isolation and Cyclodextrin Complexation Study” (Molecules, 2024)
